# In patent US10231967B2, “Compounds and their use as BACE inhibitors” (ASTRAZENECA AB, priority 2010, dated 2019):
# System: sAPPβ release in SH-SY5Y cells
# Experiment: sAPPβ release assay
# Format: cell-based
# Details: Homo sapiens, SH-SY5Y, 17 h, compounds incubated 17 h, MSD detection
# How it was run: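 SH-SY5Y cells were exposed to compounds at 1% DMSO final for 17 h at 37 °C. Secreted sAPPβ in 20 μL of medium was quantified by MSD electrochemiluminescence immunoassay with 1 nM detection antibody. Cell plates were then used in an ATP assay for cytotoxicity.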
row,SMILES,IC50 [nM]
1,CO[C@H]1CC[C@]2(CC1)Cc1ccc(-c3ccc(F)cc3F)cc1[C@@]21N=C(C)C(N)=N1 [Example 103],14
2,"CO[C@H]1CC[C@]2(CC1)Cc1ccc(-c3cccc(Cl)c3Cl)cc1[C@@]21N=C(C)C(N)=N1 [Example 104, (1r,1′R,4R)-6′-(2,3-dichlorophenyl)-4-methoxy-5″-methyl-3′H-dispiro[cyclohexane-1,2′-indene-1′,2″-imidazol]-4″-amine]",34
3,CC1=NC2(N=C1N)c1cc(-c3cc(F)cc(F)c3)ccc1C[C@]21CC[C@@H](OC(F)F)CC1 (some centres unmarked) [Example 109],28
4,"CO[C@H]1CC[C@]2(CC1)Cc1ccc(C#CC3CCC3)cc1C21N=C(C)C(N)=N1 (some centres unmarked) [Example 112, (1r,4r)-6′-(Cyclobutylethynyl)-4-methoxy-5″-methyl-3′H-dispiro[cyclohexane-1,2′-indene-1′,2″-imidazol]-4″-amine]",2
5,"CO[C@H]1CC[C@]2(CC1)Cc1ccc(C#CC(C)C)cc1C21N=C(C)C(N)=N1 (some centres unmarked) [Example 113, (1r,4r)-4-Methoxy-5″-methyl-6′-(3-methylbut-1-yn-1-yl)-3′H-dispiro[cyclohexane-1,2′-indene-1′,2″-imidazol]-4″-amine]",1.6
6,"[2H]C([2H])([2H])C#Cc1cncc(-c2ccc3c(c2)[C@@]2(N=C(C)C(N)=N2)[C@]2(CC[C@H](OC)CC2)C3)c1 [Example 114, (1r,1′R,4R)-4-Methoxy-5″-methyl-6′-{5-[(^2H3)prop-1-yn-1-yl]pyridin-3-yl}-3′H-dispiro[cyclohexane-1,2′-indene-1′,2″-imidazol]-4″-amine]",0.14
7,"CO[C@H]1CC[C@]2(CC1)Cc1ccc(-c3cnc4[nH]cc(C)c4c3)cc1C21N=C(C)C(N)=N1 (some centres unmarked) [Example 116, (1r,4r)-4-Methoxy-5″-methyl-6′-(3-methyl-1H-pyrrolo[2,3-b]pyridin-5-yl)-3′H-dispiro[cyclohexane-1,2′-indene-1′,2″-imidazol]-4″-amine]",12
8,"[2H]C([2H])([2H])O[C@H]1CC[C@]2(CC1)Cc1ccc(Br)cc1C21N=C(C)C(N)=N1 (some centres unmarked) [Example 117, (1r,4r)-6′-Bromo-5″-methyl-4-[(^2H3)methyloxy]-3′H-dispiro[cyclohexane-1,2′-indene-1′,2″-imidazol]-4″-amine]",47
9,"[2H]C([2H])([2H])O[C@H]1CC[C@]2(CC1)Cc1ccc(-c3cc(F)cc(C#N)c3)cc1C21N=C(C)C(N)=N1 (some centres unmarked) [Example 118, 3-{(1r,4r)-4″-Amino-5″-methyl-4-[(^2H3)methyloxy]-3′H-dispiro[cyclohexane-1,2′-indene-1′,2″-imidazol]-6′-yl}-5-fluorobenzonitrile]",2.8
10,"[2H]C([2H])([2H])O[C@H]1CC[C@]2(CC1)Cc1ccc(-c3cncc(Cl)c3)cc1C21N=C(C)C(N)=N1 (some centres unmarked) [Example 119, (1r,4r)-6′-(5-Chloropyridin-3-yl)-5′-methyl-4-[(^2H3)methyloxy]-3′H-dispiro[cyclohexane-1,2′-indene-1′,2″-imidazol]-4″-amine]",0.97

# Now from value to molecule:
row,IC50 [nM],SMILES
1,10,"CO[C@H]1CC[C@]2(CC1)Cc1ccc(-c3ccc4[nH]cc(C)c4c3)cc1C21N=C(C)C(N)=N1 (some centres unmarked) [Example 121, (1r,4r)-4-Methoxy-5″-methyl-6′-(3-methyl-1H-indol-5-yl)-3′H-dispiro[cyclohexane-1,2′-indene-1′,2″-imidazol]-4″-amine]"
2,135,"CC#Cc1cccc(-c2ccc3c(c2)C2(N=C(C)C(N)=N2)[C@]2(CC[C@H](OC)CC2)C3)c1Cl (some centres unmarked) [Example 123, (1r,4r)-6′-[2-Chloro-3-(prop-1-yn-1-yl)phenyl]-4-methoxy-5″-methyl-3′H-dispiro[cyclohexane-1,2′-indene-1′,2″-imidazol]-4″-amine]"
3,0.5,"[2H]C([2H])([2H])O[C@H]1CC[C@]2(CC1)Cc1ccc(-c3cc(Cl)cc(C#N)c3)cc1C21N=C(C)C(N)=N1 (some centres unmarked) [Example 125, 3-{(1r,4r)-4″-Amino-5″-methyl-4-[(^2H3)methyloxy]-3′H-dispiro[cyclohexane-1,2′-indene-1′,2″-imidazol]-6′-yl}-5-chlorobenzonitrile]"
4,1.4,"CO[C@H]1CC[C@]2(CC1)Cc1ccc(OCC3CCC3)cc1C21N=C(C)C(N)=N1 (some centres unmarked) [Example 126, (1r,4r)-6′-(Cyclobutylmethoxy)-4-methoxy-5″-methyl-3′H-dispiro[cyclohexane-1,2′-indene-1′,2″-imidazol]-4″-amine]"
5,417,CC1=NC2(N=C1N)c1cc(-c3cncc(Cl)c3)ccc1CC21CCC(C(F)F)CC1 (centres unmarked) [Example 129]
6,148,"CCO[C@H]1CC[C@]2(CC1)Cc1ccc(Br)cc1C21N=C(C)C(N)=N1 (some centres unmarked) [Example 130, (1r,4r)-6′-Bromo-4-ethoxy-5″-methyl-3′H-dispiro[cyclohexane-1,2′-indene-1′,2″-imidazol]-4″-amine]"
7,24,CCO[C@H]1CC[C@]2(CC1)Cc1ccc(-c3cncc(C(F)(F)F)c3)cc1C21N=C(C)C(N)=N1 (some centres unmarked) [Example 131]
8,17,"CCO[C@H]1CC[C@]2(CC1)Cc1ccc(-c3cc(F)cc(C#N)c3)cc1C21N=C(C)C(N)=N1 (some centres unmarked) [Example 132, 3-[(1r,4r)-4″-amino-4-ethoxy-5″-methyl-3′H-dispiro[cyclohexane-1,2′-indene-1′,2″-imidazol]-6′-yl]-5-fluorobenzonitrile]"
9,0.85,"CC#Cc1cncc(-c2ccc3c(c2)C2(N=C(C)C(N)=N2)[C@]2(CC[C@H](OCC)CC2)C3)c1 (some centres unmarked) [Example 135, (1r,4r)-4-Ethoxy-5″-methyl-6′-[5-(prop-1-yn-1-yl)pyridin-3-yl]-3′H-dispiro[cyclohexane-1,2′-indene-1′,2″-imidazol]-4″-amine]"

# Same assay, conditions: Homo sapiens, compounds incubated 17 h, MSD detection
row,SMILES,IC50 [nM]
1,"CO[C@H]1CC[C@]2(CC1)Cc1ccc(-c3cc(Cl)c(F)c(C#N)c3)cc1[C@@]21N=C(C)C(N)=N1 [Example 100, 5-[(1r,1′R,4R)-4″-amino-4-methoxy-5″-methyl-3′H-dispiro[cyclohexane-1,2′-indene-1′,2″-imidazol]-6′-yl]-3-chloro-2-fluorobenzonitrile]",0.59
2,CO[C@H]1CC[C@]2(CC1)Cc1ccc(-c3cccc(F)c3F)cc1[C@@]21N=C(C)C(N)=N1 [Example 101],6.3
3,"CO[C@H]1CC[C@]2(CC1)Cc1ccc(-c3cc(C#N)ccc3F)cc1[C@@]21N=C(C)C(N)=N1 [Example 102, 3-[(1r,1′R,4R)-4″-Amino-4-methoxy-5″-methyl-3′H-dispiro[cyclohexane-1,2′-indene-1′,2″-imidazol]-6′-yl]-4-fluorobenzonitrile]",2.5
4,CC1=NC2(N=C1N)c1cc(-c3cncc(C(F)(F)F)c3)ccc1C[C@]21CC[C@@H](OC(F)F)CC1 (some centres unmarked) [Example 107],7.9
5,"CC1=NC2(N=C1N)c1cc(-c3cc(Cl)cc(C#N)c3)ccc1C[C@]21CC[C@@H](OC(F)F)CC1 (some centres unmarked) [Example 108, 3-[(1r,4r)-4″-Amino-4-(difluoromethoxy)-5″-methyl-3′H-dispiro[cyclohexane-1,2′-indene-1′,2″-imidazol]-6′-yl]-5-chlorobenzonitrile]",1.8
6,"COc1cc(-c2ccc3c(c2)C2(N=C(C)C(N)=N2)[C@]2(CC[C@H](OC(F)F)CC2)C3)cc(C#N)c1F (some centres unmarked) [Example 110, 5-[(1r,4r)-4″-Amino-4-(difluoromethoxy)-5″-methyl-3′H-dispiro[cyclohexane-1,2′-indene-1′,2″-imidazol]-6′-yl]-2-fluoro-3-methoxybenzonitrile]",4
7,"CC#Cc1cncc(-c2ccc3c(c2)C2(N=C(C)C(N)=N2)[C@]2(CC[C@](C)(OC)CC2)C3)c1 (some centres unmarked) [Example 111, (1r,4r)-4-Methoxy-4,5″-dimethyl-6′-[5-(prop-1-yn-1-yl)pyridin-3-yl]-3′H-dispiro[cyclohexane-1,2′-indene-1′,2″-imidazol]-4″-amine]",31
8,"CC1=NC2(N=C1N)c1cc(-c3cc(F)cc(C#N)c3)ccc1CC21CCC(=O)CC1 (centres unmarked) [Example 115, 3-(4″-Amino-5″-methyl-4-oxodispiro[cyclohexane-1,2′-[1H]indene-1′(3′H),2″-[2H]imidazol]-6′-yl)-5-fluorobenzonitrile]",293
9,"CO[C@H]1CC[C@]2(CC1)Cc1ccc(-c3cncc(C(F)F)c3)cc1C21N=C(C)C(N)=N1 (some centres unmarked) [Example 120, (1r,4r)-6′-[5-(Difluoromethyl)pyridin-3-yl]-4-methoxy-5″-methyl-3′H-dispiro[cyclohexane-1,2′-indene-1′,2″-imidazol]-4″-amine]",3.1

# The remaining lines, values ahead:
row,IC50 [nM],SMILES
1,6950,"CC1=NC2(N=C1N)c1cc(Br)ccc1CC21CCC(C(F)(F)F)CC1 (centres unmarked) [Example 124, 6′-Bromo-5″-methyl-4-(trifluoromethyl)-3′H-dispiro[cyclohexane-1,2′-indene-1′,2″-imidazol]-4″-amine]"
2,5.1,"COCc1cc(-c2ccc3c(c2)C2(N=C(C)C(N)=N2)[C@]2(CC[C@H](OC)CC2)C3)cc(C#N)c1F (some centres unmarked) [Example 127, 5-[(1r,4r)-4″-Amino-4-methoxy-5″-methyl-3′H-dispiro[cyclohexane-1,2′-indene-1′,2″-imidazol]-6′-yl]-2-fluoro-3-(methoxymethyl)benzonitrile]"
3,5.5,"CCO[C@H]1CC[C@]2(CC1)Cc1ccc(-c3cncc(Cl)c3)cc1C21N=C(C)C(N)=N1 (some centres unmarked) [Example 133, (1r,4r)-6′-(5-chloropyridin-3-yl)-4-ethoxy-5″-methyl-3′H-dispiro[cyclohexane-1,2′-indene-1′,2″-imidazol]-4″-amine]"
4,7.7,"CCO[C@H]1CC[C@]2(CC1)Cc1ccc(-c3cc(C#N)cc(C(F)F)c3)cc1C21N=C(C)C(N)=N1 (some centres unmarked) [Example 134, 3-[(1r,4r)-4″-Amino-4-ethoxy-5″-methyl-3′H-dispiro[cyclohexane-1,2′-indene-1′,2″-imidazol]-6′-yl]-5-(difluoromethyl)benzonitrile]"
